Patent US20020177166A1, “Binding motif of a receptor” (MEDVET SCIENCE PTY.LTD., priority 2000, published 2002)
Blank lines part the entries; values can stand above or below the compound they belong to. Ends that are not written are not given here.

How the values were obtained:
[1] = tested on: interaction of hisβc445-881 with p85 and 14-3-3; assay: PKA-phosphorylated hisβc445-881 Sepharose pull-down from COS-7 lysates with peptide competition; format: binding; conditions: 200 mM competing peptides, 1 hour at 4° C.
Protocol: (a) analysis of PI 3-kinase activity. […] Cells were then lysed and phospho-tyrosine containing proteins were immunoprecipitated (2×10^7 cells/IP) using the 4G10 antibody. Immunoprecipitates were washed in 1× PI 3-kinase buffer (20 mM HEPES, pH 7.5, 5 mM MgCl2, 1 mM EGTA) and PI 3-kinase activity was analysed in a lipid kinase assay using phosphatidyl inositol and g^32PATP as substrates as described in the “Materials and Methods”. Autoradiogram of TLC plate is shown with ^32P-labelled phosphatidyl inositols (PIP) and the origin indicated. […] (b) CTL-EN cells were also examined for the association of βc with p85. […] Cells were then lysed and the βc immunoprecipitated (2×10^7 cells/IP) with the 1C1 anti-βc specific mAb. Immunoprecipitates were then subjected to SDS-PAGE, transferred to nitrocellulose and immunoblotted with anti-p85 (1 mg/ml) followed by detection with HRP-conjugated anti-rabbit IgG antibody and ECL. The filters were then stripped, probed with anti-SHP2 (1 mg/ml), stripped again and finally probed with 1C1 anti-βc (2 mg/ml). […] The association of hisβc445-881 with p85 was also assessed in pull-down experiments together with peptide competition. (c) List of peptides used in the hisbβc445-881 pull-down experiment. S refers to a phospho-serine residue. […]

[2] = biological target: T1, PKA (Homo sapiens, UniProt P17612); assay: In vitro kinase assay, PKA phosphorylation of hisβc445-881 with peptide competition; format: biochemical; conditions: 200 mM peptides
T1 construct: substrate Hisβc445-881 expressed in bacteria
Protocol: Peptide competitions were also performed using 200 mM peptides containing the indicated sequences. b) The ability of PKA and CKII to phosphorylate Ser585 of hisβc445-881 was examined by immunoblot analysis using the anti-phospho-Ser585βc antibodies. Filters were probed firstly with anti-phospho-Ser585βc antibodies (top panel). […] Cells were then lysed and βc immunoprecipitated with 1C1. Ser585 phosphorylation of βc was determined using the anti-phospho-Ser585 antibodies (top panel). The filter was then stripped and re-probed with anti βc 1C1 antibodies.
In an effort to identify the kinase involved in the phosphorylation of Ser585, we firstly examined the ability of several kinases to phosphorylate the purified recombinant intracellular portion of βc (hisβc445-881) in vitro. Ser585 of βc lies within a SXXD motif which is known to be a CKII consensus phosphorylation site. Ser585 also lies within a RS motif which is a possible, but poor, PKA phosphorylation site. […] Additional bands for the PKA kinase reactions were evident due to the autocatalytic activity of PKA. […] In this experiment, the non-phospho-HSRSLP peptide is likely to act as a competitive substrate for phosphorylation of Ser585 of hisβc445-881 by PKA. […]

[3] = tested on: anti-phospho-585Ser recognition of βc; assay: Western blot of immunoprecipitated βc with peptide-preincubated anti-phospho-585Serβc antibody; format: binding, human; conditions: 100 fold molar excess of peptide
Protocol: (§1) Lysates of HEK293T cells transfected with wild type βc were immunoprecipitated with anti-βc antibody (MAb 8E4). Immunoprecipitates were run on 7.5% SDS-PAGE under reducing conditions. […] M1 cells expressing GM-CSFRa and βc were either untreated (−) or stimulated with GM-CSF (2 ng/ml) for 30 seconds (+). Lysates of the M1 cells were immunoprecipitated with anti-βc antibody (MAb 8E4) and the immunoprecipitates run on 10% SDS-PAGE under reducing conditions.
These possibilities were initially addressed using ^32P-orthophosphate labelled HEK 293T cells transfected with the GM-CSF receptor (α and βc subunits). These cells were stimulated with GM-CSF, total βc was immunoprecipitated and examined for ^32P-labelling. This is most likely due to the presence of sixty serine and threonine residues in the intracellular region of βc, some of which may be constitutively phosphorylated.

[4] = tested on: Ser585 phosphorylation of βc in MO7e cells; assay: Ser585 phosphorylation and 14-3-3 recruitment in MO7e cells; format: cell-based; conditions: 30 μM H89 for 15 minutes prior to IL-3
Description: (§2) The βc was immunoprecipitated and then subjected to immunoblot analysis using the anti-phospho-Ser585βc antibody. […] Immunoprecipitates were electrophoresed on a polyacrylamide gel and the amount of radiolabelled receptor immunoprecipitated was quantified using a phosphorImager.
(§3) After various treatments, cells were lysed, βc was immunoprecipitated, and subjected to immunoblot analysis with the anti-phospho-Ser585 antibody.

[5] = tested on: Ser585 phosphorylation of βc in CTL-EN cells; assay: Ser585 phosphorylation of βc in CTL-EN cells expressing IL-3Ra and wtβc, immunoblot; format: cell-based
Description: as §2, §3

[6] = tested on: CC[C@H](C)[C@H](NC(=O)[C@H](CC(=O)O)NC(=O)[C@@H]1CCCN1C(=O)[C@H](CC(C)C)NC(=O)[C@H](CO)NC(=O)[C@H](CCCNC(=N)N)NC(=O)[C@H](CO)NC(=O)[C@H](Cc1c[nH]cn1)NC(=O)[C@@H]1CCCN1C(=O)[C@@H]1CCCN1C(=O)CNC(=O)[C@H](CC(C)C)NC(=O)[C@@H](N)CS)C(=O)N[C@@H](CC(C)C)C(=O)NCC(=O)O; assay: purified protein, by the assay type; conditions: other: peptide as PKA substrate, hyperbolic regression analysis; 21.0 °C
[7] = biological target: T2, βc association with 14-3-3ζ (Homo sapiens, UniProt P63104); assay: GST-14-3-3-sepharose precipitation of βc from transfected HEK293T lysates with peptide competition; format: binding; conditions: for inhibition of βc association with GST-14-3-3 in pull-down: peptides 100 uM
T2 construct: expressed in transfected cells; host or cells: HEK293T (βc)
T2 sequence (P63104 1-245): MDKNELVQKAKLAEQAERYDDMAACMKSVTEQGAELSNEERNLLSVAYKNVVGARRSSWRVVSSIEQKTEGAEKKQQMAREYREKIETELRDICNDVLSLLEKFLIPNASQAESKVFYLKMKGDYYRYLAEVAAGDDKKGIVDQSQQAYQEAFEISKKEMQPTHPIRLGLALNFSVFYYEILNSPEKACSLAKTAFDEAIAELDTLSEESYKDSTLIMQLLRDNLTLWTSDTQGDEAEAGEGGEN
Protocol: Lysates of HEK293T cells transfected with βc were immunoprecipitated with GST-14-3-3-sepharose in the absence or in the presence of chemically-synthesised peptides (100 uM) containing a βc sequence ([…]) or a Raf-1 sequence ([…]). In the phosphorylated peptides the relevant phosphorylated serine is underlined. The experiment was performed on 7.5% SDS-PAGE under reducing conditions. The presence of βc in the precipitation experiment was determined by Western blotting with anti-βc antibody (MAb 1C1).
Lysates of HEK293T cells transfected with βc were precipitated with GST-14-3-3-sepharose in the absence or in the presence of various concentrations of chemically-synthesised peptides. […] The appropriate phosphorylated serine in each peptide is underlined. The experiment was performed on 7.5% SDS-PAGE under reducing conditions. The presence of βc in the immunoprecipitates was determined by Western blotting with anti-βc antibody (MAb 1C1).
Cells were lysed in lysis buffer for 30 mins at 4° C. followed by centrifugation of the lysate for 15 mins at 12,000 g 4° C. […] Samples were boiled for 5 mins in SDS sample load buffer in the presence of 2-mercaptoethanol before separating precipitated proteins by SDS-PAGE.
Cell lysates were precipitated or immunoprecipitated in the presence of various concentrations of the following peptides: βc peptide sequence […] either non phosphorylated or serine phosphorylated and a scrambled peptide […]. Raf1 peptides corresponding to the sequence […] were also used and were either non phosphorylated or serine phosphorylated. The corresponding phosphorylated serine in each peptide is underlined. Peptides were synthesised by Chiron Mimotopes, Melbourne, Australia. The presence of βc in either the immunoprecipitation or precipitation experiment was determined by Western blotting with anti-βc antibody (MAb 1C1).

[8] = tested on: 585Ser phosphorylation of βc in M1 myeloid leukaemic cells; assay: 585Ser phosphorylation of βc in M1 cells, immunoblot; format: cell-based; conditions: 2 ng/ml GM-CSF
Protocol: as §1

[9] = tested on: TF-1; assay: TF-1 proliferation assay; format: cell-based; conditions: recombinant human cytokine produced in E. coli
Protocol: Acad. Sci., 91, 5838. Cytokine purity and quantitation was determined by HPLC analysis and Coomasie staining of SDS-PAGE separated proteins.

effect on phosphorylation of hisβc445-881 by PKA [2]: did not
Compound: CLPLSGPDSHIRGPL [scrambled peptide]
effect on interaction of p85 with hisβc445-881 [1]: had no apparent effect on this interaction | inhibition of anti-phospho-585Ser recognition of βc [3]: did not

Compound: O=S(=O)(NCCNC/C=C/c1ccc(Br)cc1)c1cccc2cnccc12 [H89]
effect on IL-3 induced phosphorylation of Ser585 [4]: significantly reduced the IL-3 induced phosphorylation of Ser585 | effect on IL-3 induced phosphorylation of Ser585 ([5]; 30 μM H89 for 15 minutes prior to IL-3): significantly reduced the IL-3 induced phosphorylation of Ser585

Compound: PKA (Homo sapiens)
Km [6]: 376 µM | Vmax [6]: 250 nmol/min/mg

Compound: CLSQRQRSTSTPNVHM [serine phosphorylated Raf-1 peptide] (also: serine phosphorylated, position not given here)
inhibition of βc association with GST-14-3-3 in pull-down [7]: able to inhibit βc association with 14-3-3

inhibition of βc association with GST-14-3-3 in pull-down [7]: did not
Compound: CLSQRQRSTSTPNVHM [nonphosphorylated Raf-1 peptide]

Compound: CCCC(=O)Nc1ncnc2c1ncn2[C@@H]1O[C@@H]2COP(=O)(O)O[C@H]2[C@H]1OC(=O)CCC [db-cAMP, dibutyryl cAMP]
Ser585 phosphorylation of βc after stimulation ([5]; 50 ng/ml IL-3, 50 μM forskolin or 100 μM dibutyryl cAMP): increased Ser585 phosphorylation

inhibition of βc association with 14-3-3, dose dependence and specificity ([7]; various concentrations of peptides (FIG. 8)): failed to inhibit this association
Compound: CPLSLRSKPSPGPGP

Compound: GM-CSF: recombinant human GM-CSF produced in E. coli
585Ser phosphorylation of βc [8]: strongly upregulated ^585Ser phosphorylation of βc | ED50 in TF-1 proliferation assay [9]: 0.03 ng/mL
